The source of these data is ChEMBL document CHEMBL6182878, “Discovery of novel transforming growth factor β type 1 receptor inhibitors through structure-based virtual screening, preliminary structure-activity relationship study, and biological evaluation in hepatocellular carcinoma” (Bioorg Med Chem, 2025).

pEC50: −log10 of the molar value. Active and inactive are the calls of the source. No cut-off for these calls is given here.

The term pEC50 denotes −log10 of the EC50, conventionally taken in molar units. Higher therefore signals a small EC50. One may read the GI50 as the concentration at which growth is held to half of that of the control.

Test [1] can be described thus: Inhibition of TGFbeta-dependent SMAD2/3 phosphorylation in mouse NIH3T3 cells incubated for 24 hrs by luciferase reporter assay. The conditions noted are these: NIH3T3, 24 h.
The test system of test [2] is Hep 3B2. Description: Growth inhibition of human Hep3B cells incubated for 72 hrs by CCK-8 assay. In kind it is functional. In general terms: Formazan colour is commonly taken as a measure of viable cells.
Test [3] concerns the target Mothers against decapentaplegic homolog 2 (Homo sapiens) (UniProt Q15796). Nature of the test: Inhibition of TGFbeta-induced SMAD2 phosphorylation at S465/467 residues in serum-starved human Hep3B cells preincubated with compound for 30 mins followed by TGFbeta addition and measured after 30 mins by Western blotting analysis. In kind it is cell-based. The note with it: dose 1-10 µM, time 60.0 min. (A western blot detects proteins with antibodies after separation by electrophoresis.)

The subject of test [4] is Hep 3B2. Description: Induction of apoptosis in human Hep3B cells at 5 uM incubated for 72 hrs by Annexin V-FITC/PI staining based flow cytometry. It counts as functional, cell-based.
The test system of test [5] is Hep 3B2. Nature of the test: Induction of apoptosis in human Hep3B cells at 10 uM incubated for 48 hrs by Annexin V-FITC/PI staining based flow cytometry. It counts as functional, cell-based. (A flow cytometer gives signals particle by particle.)
Test [6] relates to Hep 3B2. Description: Induction of apoptosis in human Hep3B cells at 10 uM incubated for 48 to 72 hrs in presence of sorafenib by Annexin V-FITC/PI staining based flow cytometry. In kind it is functional, cell-based. The note with it: time 48-72 hrs.
For test [7], the system named is Hep 3B2. Description: Synergistic antiproliferative activity against human Hep3B cells at 1.56 to 3.12 uM in presence of sorafenib. In kind it is functional, cell-based. The conditions noted are these: dose 1.56-3.12 µM.

Sequence of Mothers against decapentaplegic homolog 2 (Homo sapiens) (Q15796 whole entry): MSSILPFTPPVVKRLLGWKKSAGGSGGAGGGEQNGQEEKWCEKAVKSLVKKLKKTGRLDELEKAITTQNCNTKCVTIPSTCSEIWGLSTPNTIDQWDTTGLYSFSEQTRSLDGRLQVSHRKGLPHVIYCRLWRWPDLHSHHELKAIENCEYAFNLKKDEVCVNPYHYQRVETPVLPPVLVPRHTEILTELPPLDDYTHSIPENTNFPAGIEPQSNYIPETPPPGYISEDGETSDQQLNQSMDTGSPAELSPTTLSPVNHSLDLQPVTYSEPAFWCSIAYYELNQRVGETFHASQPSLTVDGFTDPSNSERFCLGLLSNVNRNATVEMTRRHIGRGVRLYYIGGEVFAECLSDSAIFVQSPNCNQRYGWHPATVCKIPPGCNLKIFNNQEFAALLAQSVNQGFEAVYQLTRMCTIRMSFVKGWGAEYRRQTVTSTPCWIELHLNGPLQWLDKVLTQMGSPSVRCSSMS

`O=S(=O)(Nc1ccc(Cl)cn1)c1c[nH]c2ncccc12`: the pEC50 in test [1] is 6.67. The same compound returned a GI50 in the test on Hep 3B2 [2] of 2860 nM.

`Cc1cccc(-c2nn3c(c2-c2ccnc4ccc(C(N)=O)cc24)CCC3)n1` [GALUNISERTIB] gave a pEC50 in test [1] of 7.32. The GI50 with Hep 3B2 [2] amounted to 1070 nM. In addition, the inhibition result in test [3] was “Dose-dependent-effect”.

For the compound `CNC(=O)c1cc(Oc2ccc(NC(=O)Nc3ccc(Cl)c(C(F)(F)F)c3)cc2)ccn1`, in the test with Hep 3B2 [4], the outcome was Active.

In test [1], `COc1ccc(NS(=O)(=O)c2c[nH]c3ncccc23)cc1` had a pEC50 of 6.27. In the test with Hep 3B2 [2], the GI50 was determined as 5710 nM.

For the compound `Cc1nc(NS(=O)(=O)c2c[nH]c3ncccc23)ccc1Cl`, the outcome with Hep 3B2 [5] and in the test on Hep 3B2 [6] was Active. For the same compound, the pEC50 in test [1] was 6.80. In the test with Hep 3B2 [2], this compound yielded a 50% growth inhibitory concentration (GI50) of 2280 nM. The Activity result in the test with Hep 3B2 [7] is reported as “Active; Compound Showed Moderate Activity”. The inhibition result in test [3] was “Dose-dependent-effect”.
